Measurements: patent US20250340575A1, “4-AMINOPYRROLO[2,1-F][1,2,4]TRIAZINES AND PREPARATION AND USES THEREOF” (Biosplice Therapeutics, Inc., priority 2024, published 2025)

The molecules below were run against recombinant DYRK1A kinase (Homo sapiens, UniProt Q13627) (assay: DYRK1A kinase assay (Ser/Thr 18 peptide Z-lyte FRET)). Conditions: DYRK1A 0.25 μg/mL, ATP 15 μM, Ser/Thr peptide 18 4 μM, one hour at room temperature, 11-point dose-response from 10 μM.
Format: biochemical

Structure (SMILES)	IC50
CNc1nc(N[C@@H]2CCN(C)CC2(F)F)nn2cc(F)c(-c3ccc4nnn(CCF)c4n3)c12 [Compound 251, (R)—N^2-(3,3-Difluoro-1-methylpiperidin-4-yl)-6-fluoro-5-(3-(2-fluoroethyl)-3H-[1,2,3]triazolo[4,5-b]pyridin-5-yl)-N^4-methylpyrrolo[2,1-f][1,2,4]triazine-2,4-diamine]	2.2 nM
CNc1nc(N[C@@H]2CCN(C(C)=O)CC2(F)F)nn2cc(F)c(-c3ccc4nnn(CCF)c4n3)c12 [Compound 252, (R)-1-(3,3-Difluoro-4-((6-fluoro-5-(3-(2-fluoroethyl)-3H-[1,2,3]triazolo[4,5-b]pyridin-5-yl)-4-(methylamino)pyrrolo[2,1-f][1,2,4]triazin-2-yl)amino)piperidin-1-yl)ethan-1-one]	1.9 nM
CNc1nc(N[C@@H]2CCN(C3COC3)CC2(F)F)nn2cc(F)c(-c3ccc4nnn(CCF)c4n3)c12 [Compound 254, (R)—N^2-(3,3-Difluoro-1-(oxetan-3-yl)piperidin-4-yl)-6-fluoro-5-(3-(2-fluoroethyl)-3H-[1,2,3]triazolo[4,5-b]pyridin-5-yl)-N^4-methylpyrrolo[2,1-f][1,2,4]triazine-2,4-diamine]	2.2 nM
COCCN1CC[C@H](Nc2nc(N)c3c(-c4ccc5nnn(CC(F)F)c5n4)ccn3n2)[C@H](F)C1 [Compound 256, 5-(3-(2,2-Difluoroethyl)-3H-[1,2,3]triazolo[4,5-b]pyridin-5-yl)-N^2-((3R,4S)-3-fluoro-1-(2-methoxyethyl)piperidin-4-yl)pyrrolo[2,1-f][1,2,4]triazine-2,4-diamine]	3.5 nM
C[C@]1(O)CC[C@H](Nc2nc(N)c3c(-c4ccc5nnn(CC(F)F)c5n4)c(F)cn3n2)CC1 [Compound 257, (1r,4r)-4-((4-Amino-5-(3-(2,2-difluoroethyl)-3H-[1,2,3]triazolo[4,5-b]pyridin-5-yl)-6-fluoropyrrolo[2,1-f][1,2,4]triazin-2-yl)amino)-1-methylcyclohexan-1-ol]	1.4 nM
CC(=O)N1CC[C@H](Nc2nc(N)c3c(-c4ccc5nnn(CC(F)F)c5n4)c(F)cn3n2)[C@H](F)C1 [Compound 258, 1-((3R,4S)-4-((4-amino-5-(3-(2,2-difluoroethyl)-3H-[1,2,3]triazolo[4,5-b]pyridin-5-yl)-6-fluoropyrrolo[2,1-f][1,2,4]triazin-2-yl)amino)-3-fluoropiperidin-1-yl)ethan-1-one]	1.3 nM
Nc1nc(N[C@H]2CCN(C3COC3)C[C@H]2F)nn2cc(F)c(-c3ccc4nnn(CC(F)F)c4n3)c12 [Compound 260, 5-(3-(2,2-Difluoroethyl)-3H-[1,2,3]triazolo[4,5-b]pyridin-5-yl)-6-fluoro-N^2-((3R,4S)-3-fluoro-1-(oxetan-3-yl)piperidin-4-yl)pyrrolo[2,1-f][1,2,4]triazine-2,4-diamine]	1.8 nM
CN1CC[C@@H](Nc2nc(N)c3c(-c4ccc5nnn(CC(F)F)c5n4)c(F)cn3n2)C(F)(F)C1 [Compound 261, (R)—N^2-(3,3-Difluoro-1-methylpiperidin-4-yl)-5-(3-(2,2-difluoroethyl)-3H-[1,2,3]triazolo[4,5-b]pyridin-5-yl)-6-fluoropyrrolo[2,1-f][1,2,4]triazine-2,4-diamine]	0.6 nM
CC(=O)N1CC[C@@H](Nc2nc(N)c3c(-c4ccc5nnn(CC(F)F)c5n4)c(F)cn3n2)C(F)(F)C1 [Compound 262, (R)-1-(4-((4-Amino-5-(3-(2,2-difluoroethyl)-3H-[1,2,3]triazolo[4,5-b]pyridin-5-yl)-6-fluoropyrrolo[2,1-f][1,2,4]triazin-2-yl)amino)-3,3-difluoropiperidin-1-yl)ethan-1-one]	1.3 nM
Nc1nc(N[C@@H]2CCN(C3COC3)CC2(F)F)nn2cc(F)c(-c3ccc4nnn(CC(F)F)c4n3)c12 [Compound 264, (R)—N^2-(3,3-Difluoro-1-(oxetan-3-yl)piperidin-4-yl)-5-(3-(2,2-difluoroethyl)-3H-[1,2,3]triazolo[4,5-b]pyridin-5-yl)-6-fluoropyrrolo[2,1-f][1,2,4]triazine-2,4-diamine]	1.2 nM
CC[C@]1(O)C[C@H](Nc2nc(NC)c3c(-c4ccc5nnn(CC(F)F)c5n4)ccn3n2)C1 [Compound 267, (1r,3s)-3-((5-(3-(2,2-Difluoroethyl)-3H-[1,2,3]triazolo[4,5-b]pyridin-5-yl)-4-(methylamino)pyrrolo[2,1-f][1,2,4]triazin-2-yl)amino)-1-ethylcyclobutan-1-ol]	0.5 nM
CNc1nc(NC2CCN(CC(F)F)CC2)nn2ccc(-c3ccc4nnn(CC(F)F)c4n3)c12 [Compound 270, 5-(3-(2,2-Difluoroethyl)-3H-[1,2,3]triazolo[4,5-b]pyridin-5-yl)-N^2-(1-(2,2-difluoroethyl)piperidin-4-yl)-N^4-methylpyrrolo[2,1-f][1,2,4]triazine-2,4-diamine]	1.7 nM
CNc1nc(NC2CCN(C3COC3)CC2)nn2ccc(-c3ccc4nnn(CC(F)F)c4n3)c12 [Compound 271, 5-(3-(2,2-Difluoroethyl)-3H-[1,2,3]triazolo[4,5-b]pyridin-5-yl)-N^4-methyl-N^2-(1-(oxetan-3-yl)piperidin-4-yl)pyrrolo[2,1-f][1,2,4]triazine-2,4-diamine]	2.9 nM
CNc1nc(N[C@@H]2CCN(C)C[C@@H]2F)nn2ccc(-c3ccc4nnn(CC(F)F)c4n3)c12 [Compound 272, 5-(3-(2,2-Difluoroethyl)-3H-[1,2,3]triazolo[4,5-b]pyridin-5-yl)-N^2-((3S,4R)-3-fluoro-1-methylpiperidin-4-yl)-N^4-methylpyrrolo[2,1-f][1,2,4]triazine-2,4-diamine]	5 nM
CNc1nc(N[C@H]2CCN(C)C[C@H]2F)nn2ccc(-c3ccc4nnn(CC(F)F)c4n3)c12 [Compound 273, 5-(3-(2,2-Difluoroethyl)-3H-[1,2,3]triazolo[4,5-b]pyridin-5-yl)-N^2-((3R,4S)-3-fluoro-1-methylpiperidin-4-yl)-N^4-methylpyrrolo[2,1-f][1,2,4]triazine-2,4-diamine]	2.7 nM
CNc1nc(N[C@H]2CCN(CCF)C[C@H]2F)nn2ccc(-c3ccc4nnn(CC(F)F)c4n3)c12 [Compound 274, 5-(3-(2,2-Difluoroethyl)-3H-[1,2,3]triazolo[4,5-b]pyridin-5-yl)-N^2-((3R,4S)-3-fluoro-1-(2-fluoroethyl)piperidin-4-yl)-N^4-methylpyrrolo[2,1-f][1,2,4]triazine-2,4-diamine]	3.6 nM
CNc1nc(N[C@H]2CCN(CCOC)C[C@H]2F)nn2ccc(-c3ccc4nnn(CC(F)F)c4n3)c12 [Compound 275, 5-(3-(2,2-Difluoroethyl)-3H-[1,2,3]triazolo[4,5-b]pyridin-5-yl)-N^2-((3R,4S)-3-fluoro-1-(2-methoxyethyl)piperidin-4-yl)-N^4-methylpyrrolo[2,1-f][1,2,4]triazine-2,4-diamine]	8.4 nM
CNc1nc(N[C@@H]2CCN(C(=O)CO)CC2(F)F)nn2ccc(-c3ccc4nnn(CC(F)F)c4n3)c12 [Compound 276, (R)-1-(4-((5-(3-(2,2-Difluoroethyl)-3H-[1,2,3]triazolo[4,5-b]pyridin-5-yl)-4-(methylamino)pyrrolo[2,1-f][1,2,4]triazin-2-yl)amino)-3,3-difluoropiperidin-1-yl)-2-hydroxyethan-1-one]	1.2 nM
CNc1nc(N[C@H]2CC[C@](C)(O)CC2)nn2cc(F)c(-c3ccc4nnn(CC(F)F)c4n3)c12 [Compound 286, (1r,4r)-4-((5-(3-(2,2-Difluoroethyl)-3H-[1,2,3]triazolo[4,5-b]pyridin-5-yl)-6-fluoro-4-(methylamino)pyrrolo[2,1-f][1,2,4]triazin-2-yl)amino)-1-methylcyclohexan-1-ol]	3.6 nM
CNc1nc(N[C@H]2CCN(C(C)=O)C[C@H]2F)nn2cc(F)c(-c3ccc4nnn(CC(F)F)c4n3)c12 [Compound 288, 1-((3R,4S)-4-((5-(3-(2,2-Difluoroethyl)-3H-[1,2,3]triazolo[4,5-b]pyridin-5-yl)-6-fluoro-4-(methylamino)pyrrolo[2,1-f][1,2,4]triazin-2-yl)amino)-3-fluoropiperidin-1-yl)ethan-1-one]	2.4 nM
CNc1nc(N[C@H]2CCN(C3COC3)C[C@H]2F)nn2cc(F)c(-c3ccc4nnn(CC(F)F)c4n3)c12 [Compound 290, 5-(3-(2,2-Difluoroethyl)-3H-[1,2,3]triazolo[4,5-b]pyridin-5-yl)-6-fluoro-N^2-((3R,4S)-3-fluoro-1-(oxetan-3-yl)piperidin-4-yl)-N^4-methylpyrrolo[2,1-f][1,2,4]triazine-2,4-diamine]	1.2 nM
CNc1nc(N[C@@H]2CCN(C)CC2(F)F)nn2cc(F)c(-c3ccc4nnn(CC(F)F)c4n3)c12 [Compound 291, (R)—N^2-(3,3-Difluoro-1-methylpiperidin-4-yl)-5-(3-(2,2-difluoroethyl)-3H-[1,2,3]triazolo[4,5-b]pyridin-5-yl)-6-fluoro-N^4-methylpyrrolo[2,1-f][1,2,4]triazine-2,4-diamine]	1.2 nM
CNc1nc(N[C@@H]2CCN(C(C)=O)CC2(F)F)nn2cc(F)c(-c3ccc4nnn(CC(F)F)c4n3)c12 [Compound 293, (R)-1-(4-((5-(3-(2,2-Difluoroethyl)-3H-[1,2,3]triazolo[4,5-b]pyridin-5-yl)-6-fluoro-4-(methylamino)pyrrolo[2,1-f][1,2,4]triazin-2-yl)amino)-3,3-difluoropiperidin-1-yl)ethan-1-one]	1.9 nM
CNc1nc(N[C@@H]2CCN(C3COC3)CC2(F)F)nn2cc(F)c(-c3ccc4nnn(CC(F)F)c4n3)c12 [Compound 295, (R)—N^2-(3,3-Difluoro-1-(oxetan-3-yl)piperidin-4-yl)-5-(3-(2,2-difluoroethyl)-3H-[1,2,3]triazolo[4,5-b]pyridin-5-yl)-6-fluoro-N^4-methylpyrrolo[2,1-f][1,2,4]triazine-2,4-diamine]	1.4 nM
CNc1nc(N[C@H]2CCN(C)C[C@H]2F)nn2ccc(-c3ccc4nnn(CCCF)c4n3)c12 [Compound 333, N^2-((3R,4S)-3-Fluoro-1-methylpiperidin-4-yl)-5-(3-(3-fluoropropyl)-3H-[1,2,3]triazolo[4,5-b]pyridin-5-yl)-N^4-methylpyrrolo[2,1-f][1,2,4]triazine-2,4-diamine]	11.2 nM
